pIC50: −log10 of the molar value. Like-named read-outs stand apart in the source and are kept apart here.
Columns and labels:
[1] = from CCn1c(-c2cccnc2[C@H](C)OC)c(CC(C)(C)CO)c2cc(-c3cccc(C[C@H](NC(=O)OC(C)(C)C)C(=O)N4CCC[C@@H](C(=O)O)C4)c3)ccc21, ester bond, 18-membered ring, EDCI/HOBT/DIPEA, DCM, 25.0 °C, 16.0 h, 2 steps
[2] = tested on: human KRAS G12C mutated cell line MIA PaCa-2; test: KRas G12C in vitro inhibitory activity: cell proliferation, CellTiter-Glo; type: cell-based; details: Homo sapiens
Source text: The present example evaluates the ability of compounds provided herein to inhibit proliferation of KRAS mutant cells.
The inhibitory effect on cell proliferation was investigated in the human KRAS G12C mutated cell line MIA PaCa-2 (Yunis et al., 1977, Int. J. Cancer 19(1):128-135; ATCC catalog no. CRL-1420). Cells were maintained in RPMI-1640 medium (ThermoFisher catalog no. 61870036) supplemented with 10% of Heat Inactivated FBS (ThermoFisher catalog no. A31605) and 1% Pen-Strep (ThermoFisher catalog no. 10378016) and cultured at 37° C. in a humidified incubator with 5% CO2. Cells were grown by adhering to culture flasks, and maintained at 70%-80% confluency.
ATP is present in all metabolically active cells and is considered as a marker for viable cells. The number of metabolically active live cells in culture was determined using the CellTiter-Glo kit (Promega catalog no. G7572), an ATP monitoring system based on the production of luminescence by the reaction of ATP with added UltraGlo® recombinant luciferase (Kawano et al., 2016, PLOS One, 8; 11(7):e0158888), according to the supplier's experimental recommendations. The cell proliferation assay was based on a 96 well plate format.
Test compounds were dissolved at 10 mM in DMSO (Sigma catalog no. D8418; purity >99.9%) and stored at −20° C. Eight concentrations of test compound were assessed in duplicate in an individual test occasion in parallel in the selected cell lines. MRTX-849 and AMG-510 were used as reference compounds and tested in duplicate at eight concentrations. 100% of proliferation is represented by the untreated cells (0.2% DMSO).
On the day of the experiment (TO), cells were detached with TrypLE (ThermoFisher catalog no. 12604054), quantified using the cell viability analyser NucleoCounter (Chemometec NC-200) and resuspended in fresh medium at a cell density of about 5000 cells per 200 μL medium. 200 μL of cell suspension were added to each well of a 96 well plate.
Two hours after seeding cells, compounds were added at desired concentrations using a D300e compound dispenser (Life Sciences Tecan D300) with shaking after each compound addition. Assay plates were incubated at 37° C. in a humidified incubator with 5% CO2.
(§1) To measure 3 day inhibition of cell proliferation on day 3 (T3), assay plates were equilibrated to room temperature for approximately 15 min, and the Promega CellTiterGlo® reagent was added at 40 μL/well. Contents were mixed for 5 min on an orbital shaker to induce cell lysis, and then incubated at room temperature for an additional 10 min in the dark to stabilize the luminescent signal. Luminescence was read using a GloMax GM300 plate reader (Promega) using the luminescence for 96 well plate standard protocol.
as §1, with “measure 7” for “measure 3”, “(T3), 150 μL of growth media was removed from each well of the assay plates and replaced with 150 uL fresh growth media, and fresh compounds added using a D300e compound dispenser (Life Sciences Tecan D300) at desired concentrations with shaking between each compound addition. Assay plates were incubated at 37° C. in a humidified incubator with 5% CO2. On day 7 (T7)” for “(T3),”
Data was expressed as % of inhibition compared to the 0.2% DMSO negative no drug control, and is calculated as follows: % inhibition=100−[(RLU sample)×100/(RLU average controls*)], where * indicates the average for 0.2% DMSO.
Results were analyzed by GraphPad (Prism) and IC50 values were calculated by non-linear regression using four parameter-logistic equation. […]

[3] = MIA PaCa-2, 72 h, 3 day inhibition of cell proliferation, CellTiter-Glo luminescence, read-out: MIA PaCa-2 Day 3 IC50
[4] = MIA PaCa-2, 7 day inhibition of cell proliferation, medium and compound renewed on day 3, CellTiter-Glo luminescence, read-out: MIA PaCa-2 Day 7 IC50

| pIC50 [2, 3] | pIC50 [2, 4] | Compound | ring closure, isolated yield ([1]; 9.6 mM) | ring closure, isolated yield ([1]; 9.9 mM) |
| --- | --- | --- | --- | --- |
|  |  | CCn1c(-c2cccnc2[C@H](C)OC)c2c3cc(ccc31)-c1cccc(c1)C[C@H](NC(=O)OC(C)(C)C)C(=O)N1CCC[C@H](C1)C(=O)OCC(C)(C)C2 | 62% | 56% |
| < 7.00 | 8.00 to 9.00 | CCn1c(-c2cccnc2[C@H](C)OC)c2c3cc(ccc31)-c1csc(n1)C[C@H](NC(=O)[C@H](C(C)C)N(C)C(=O)[C@H]1CCN(CC#CC(=O)N3CCC3)C1)C(=O)N1CCC[C@H](N1)C(=O)OCC(C)(C)C2 (atropisomer, axis not shown) [Compound 116, (3S)-1-(4-(azetidin-1-yl)-4-oxobut-2-yn-1-yl)-N-((2S)-1-(((6^3S,4S,Z)-1^1-ethyl-1^2-(2-((S)-1-methoxyethyl)pyridin-3-yl)-10,10-dimethyl-5,7-dioxo-6^1,6^2,6^3,6^4,6^5,6^6-hexahydro-1^1H-8-oxa-2(4,2)-thiazola-1(5,3)-indola-6(1,3)-pyridazinacycloundecaphane-4-yl)amino)-3-methyl-1-oxobutan-2-yl)-N-methylpyrrolidine-3-carboxamide] |  |  |
| < 7.00 | 8.00 to 9.00 | CCn1c(-c2cccnc2[C@H](C)OC)c2c3cc(ccc31)-c1csc(n1)C[C@H](NC(=O)[C@H](C(C)C)N(C)C(=O)[C@H]1CCN(CC#CC(=O)N3CC(F)(F)C3)C1)C(=O)N1CCC[C@H](N1)C(=O)OCC(C)(C)C2 (atropisomer, axis not shown) [Compound 117, (3S)-1-(4-(3,3-difluoroazetidin-1-yl)-4-oxobut-2-yn-1-yl)-N-((2S)-1-(((6^3S,4S,Z)-1^1-ethyl-1^2-(2-((S)-1-methoxyethyl)pyridin-3-yl)-10,10-dimethyl-5,7-dioxo-6^1,6^2,6^3,6^4,6^5,6^6-hexahydro-1^1H-8-oxa-2(4,2)-thiazola-1(5,3)-indola-6(1,3)-pyridazinacycloundecaphane-4-yl)amino)-3-methyl-1-oxobutan-2-yl)-N-methylpyrrolidine-3-carboxamide] |  |  |
| < 7.00 | 8.00 to 9.00 | CCn1c(-c2cccnc2[C@H](C)OC)c2c3cc(ccc31)-c1csc(n1)C[C@H](NC(=O)[C@H](C(C)C)N(C)C(=O)[C@H]1CCN(CC#CC(=O)N3CC(F)C3)C1)C(=O)N1CCC[C@H](N1)C(=O)OCC(C)(C)C2 (atropisomer, axis not shown) [Compound 118, (3S)—N-((2S)-1-(((6^3S,4S,Z)-1^1-ethyl-1^2-(2-((S)-1-methoxyethyl)pyridin-3-yl)-10,10-dimethyl-5,7-dioxo-6^1,6^2,6^3,6^4,6^5,6^6-hexahydro-1^1H-8-oxa-2(4,2)-thiazola-1(5,3)-indola-6(1,3)-pyridazinacycloundecaphane-4-yl)amino)-3-methyl-1-oxobutan-2-yl)-1-(4-(3-fluoroazetidin-1-yl)-4-oxobut-2-yn-1-yl)-N-methylpyrrolidine-3-carboxamide] |  |  |
| < 7.00 |  | C=CC(=O)N1CC[C@H](C(=O)N(C)[C@H](C(=O)N[C@H]2Cc3cccc(c3)-c3ccc4c(c3)c(c(-c3cccnc3[C@H](C)OC)n4CC)CC(C)(C)n3cc(nn3)[C@@H]3CCCN(N3)C2=O)C(C)C)C1 [Compound 104, (3S)-1-acryloyl-N-((2S)-1-(((6^3S,8S,Z)-21-ethyl-2^2-(2-((S)-1-methoxyethyl)pyridin-3-yl)-4,4-dimethyl-7-oxo-6^1,6^2,6^3,6^4,6^5,6^6-hexahydro-2^1H,5^1H-2(5,3)-indola-6(3,1)-pyridazina-5(1,4)-triazola-1(1,3)-benzenacyclononaphane-8-yl)amino)-3-methyl-1-oxobutan-2-yl)-N-methylpyrrolidine-3-carboxamide] |  |  |
| 7.00 to 8.00 | 7.00 to 8.00 | CCn1c(-c2cccnc2[C@H](C)OC)c2c3cc(ccc31)-c1csc(n1)C[C@H](NC(=O)[C@H](C(C)C)N(C)C(=O)N1[C@H](C)CN(CC#CC(=O)N(C)C)C[C@H]1C)C(=O)N1CCC[C@H](N1)C(=O)OCC(C)(C)C2 [Compound 105, (2R,6R)-4-(4-(dimethylamino)-4-oxobut-2-yn-1-yl)-N-((2S)-1-(((6^3S,4S,Z)-1^1-ethyl-1^2-(2-((S)-1-methoxyethyl)pyridin-3-yl)-10,10-dimethyl-5,7-dioxo-6^1,6^2,6^3,6^4,6^5,6^6-hexahydro-1^1H-8-oxa-2(4,2)-thiazola-1(5,3)-indola-6(1,3)-pyridazinacycloundecaphane-4-yl)amino)-3-methyl-1-oxobutan-2-yl)-N,2,6-trimethylpiperazine-1-carboxamide] |  |  |
| < 7.00 |  | CCn1c(-c2cccnc2[C@H](C)OC)c2c3cc(ccc31)-c1cccc(c1)C[C@H](NC(=O)[C@H](C(C)C)N(C)C(=O)[C@H]1CCN(C(=O)C#CCN3CCOCC3)C1)C(=O)N1CCC[C@@H](CC(=O)OC(C)(C)C2)C1 [Compound 106, (3S)—N-((2S)-1-(((6^3S,4S)-1^1-ethyl-1^2-(2-((S)-1-methoxyethyl)pyridin-3-yl)-10,10-dimethyl-5,8-dioxo-1^1H-9-oxa-1(5,3)-indola-6(1,3)-piperidina-2(1,3)-benzenacycloundecaphane-4-yl)amino)-3-methyl-1-oxobutan-2-yl)-N-methyl-1-(4-morpholinobut-2-ynoyl)pyrrolidine-3-carboxamide] |  |  |
|  | < 7.00 | CCn1c(-c2cccnc2[C@H](C)OC)c2c3cc(ccc31)-c1cccc(c1)C[C@H](NC(=O)[C@H](C(C)C)N(C)C(=O)[C@H]1CCN(C(=O)C#CCN3CCOCC3)C1)C(=O)N1CCC[C@@H](CC(=O)OC(C)(C)C2)C1 [Compound 107] |  |  |
| < 7.00 |  | CCn1c(-c2cccnc2[C@H](C)OC)c2c3cc(ccc31)-c1cccc(c1)C[C@H](NC(=O)[C@H](C(C)C)N(C)C(=O)[C@H]1CCN(C(=O)C#CCN3CCOCC3)C1)C(=O)N1CCC[C@H](CC(=O)OC(C)(C)C2)C1 [Compound 108, (3S)—N-((2S)-1-(((6^3R,4S)-1^1-ethyl-1^2-(2-((S)-1-methoxyethyl)pyridin-3-yl)-10,10-dimethyl-5,8-dioxo-1^1H-9-oxa-1(5,3)-indola-6(1,3)-piperidina-2(1,3)-benzenacycloundecaphane-4-yl)amino)-3-methyl-1-oxobutan-2-yl)-N-methyl-1-(4-morpholinobut-2-ynoyl)pyrrolidine-3-carboxamide] |  |  |
| > 9.00 |  | CCn1c(-c2cccnc2[C@H](C)OC)c2c3cc(ccc31)-c1csc(n1)C[C@H](NC(=O)[C@H](C(C)C)N(C)C(=O)[C@H]1CCN(C(C)C#CC(=O)N(C)C)C1)C(=O)N1CCC[C@H](N1)C(=O)OCC(C)(C)C2 (stereo partly drawn) [Compound 114, (3S)-1-(5-(dimethylamino)-5-oxopent-3-yn-2-yl)-N-((2S)-1-(((63S,4S,Z)-1^1-ethyl-1^2-(2-((S)-1-methoxyethyl)pyridin-3-yl)-10,10-dimethyl-5,7-dioxo-6^1,6^2,6^3,6^4,6^5,6^6-hexahydro-11H-8-oxa-2(4,2)-thiazola-1(5,3)-indola-6(1,3)-pyridazinacycloundecaphane-4-yl)amino)-3-methyl-1-oxobutan-2-yl)-N-methylpyrrolidine-3-carboxamide] |  |  |

From US20250066386A1, “INHIBITORS OF KRAS” (BIOMEA FUSION, INC., priority 2022, published 2025)
